One may read the IC50 as the concentration that inhibits the measured activity by half.

The values that follow come from US7632829B2, “Diazepan derivatives” (Hoffmann-La Roche Inc., priority 2006, dated 2009).

For this assay, the target named is T1, human chemokine receptor 2 isoform B (Homo sapiens, UniProt P41597).
T1 construct: host or cells: CHOK1-CCR2B-A5 (CHO-K1)
T1 sequence (P41597 1-360 isoform P41597-2): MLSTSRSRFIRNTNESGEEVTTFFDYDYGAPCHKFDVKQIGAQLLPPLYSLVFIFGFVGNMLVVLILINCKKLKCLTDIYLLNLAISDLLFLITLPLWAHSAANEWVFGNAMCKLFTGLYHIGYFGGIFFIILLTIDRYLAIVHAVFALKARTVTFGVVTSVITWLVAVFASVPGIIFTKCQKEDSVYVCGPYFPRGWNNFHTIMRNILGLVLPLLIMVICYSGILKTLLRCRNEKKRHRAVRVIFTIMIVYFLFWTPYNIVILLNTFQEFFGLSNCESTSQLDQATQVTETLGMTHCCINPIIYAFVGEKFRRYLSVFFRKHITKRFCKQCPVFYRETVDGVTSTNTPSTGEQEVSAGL
In words: Calcium mobilization assay (FLIPR, CHOK1-CCR2B-A5 cells, 20 nM MCP-1). In kind it is cell-based. The settings on record: Ca mobilisation assay, CCR2, antagonist activity vs 20 nM MCP-1. The method, boiled down:
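FLIPR Fluo-4 calcium readout in CHO-K1 cells stably overexpressing human CCR2B; compounds first monitored 80 s for agonist activity, then after 20-30 min at 30 °C challenged with 20 nM MCP-1. Response is max minus basal fluorescence; antagonist value is concentration giving 50% inhibition of specific calcium increase.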
On the technique in general: Calcium flux is commonly read through the fluorescence of an indicator in the cells.
`N#CC1CCN(CCCN2CCN(C(=O)/C=C/c3ccc(F)c(Cl)c3)CCC2=O)CC1` [Example 199]: the IC50 was determined as 1340 nM. Next, `CC1CCN(CCCN2CCN(C(=O)C=Cc3ccc(Cl)c(F)c3)CCC2=O)CC1O` (single isomer, unassigned) [Example 492, 1-[(E)-3-(4-Chloro-3-fluoro-phenyl)-acryloyl]-4-[3-((−,cis)-3-hydroxy-4-methyl-piperidin-1-yl)-propyl]-[1,4]diazepan-5-one]: 26 nM; `O=C(/C=C/c1ccc(Cl)c(Cl)c1)N1CCC(=O)N(CCCCN2CCCCC2CO)CC1` (racemic) [Example 427, (rac)-1-[(E)-3-(3,4-Dichloro-phenyl)-acryloy]-4-[4-(2-hydroxymethyl-piperidin-1-yl)-butyl]-[1,4]diazepan-5-one]: 259 nM; `O=C1CC2(CCN(CCCN3CCN(C(=O)/C=C/c4ccc(Cl)c(Cl)c4)CCC3=O)CC2)CN1` [Example 88, 8-(3-{4-[(E)-3-(3,4-Dichloro-phenyl)-acryloyl]-7-oxo-[1,4]diazepan-1-yl}-propyl)-2,8-diaza-spiro[4.5]decan-3-one]: 757 nM. For `CC1CCCN(CCCN2CCN(C(=O)/C=C/c3ccc(Cl)c(Cl)c3)CCC2=O)C1` (racemic) [Example 235], the IC50 came to 112 nM. Regarding `CO[C@@H]1CN(CCCCN2CCN(C(=O)/C=C/c3ccc(Cl)c(Cl)c3)CCC2=O)CC[C@@H]1CO` (racemic) [Example 472], the IC50 turned out to be 418 nM. Next, `CC1(CO)CCCN1CCCCN1CCN(C(=O)/C=C/c2ccc(Cl)c(Cl)c2)CCC1=O` (racemic) [Example 462]: 41 nM; `O=C(C=Cc1ccc(Cl)c(Cl)c1)N1CCC(=O)N(CCNC2CCC(O)(c3ccccn3)CC2)CC1` (stereo not drawn) [Example 105, trans-1-[(E)-3-(3,4-Dichloro-phenyl)-acryloyl]-4-[3-(4-hydroxy-4-pyridin-2-yl-cyclohexylamino)-ethyl]-[1,4]diazepan-5-one]: 806 nM. The result for `O=C(/C=C/c1ccc(Cl)c(Cl)c1)N1CCC(=O)N(CCN[C@@H]2CCCC[C@H]2O)CC1` (racemic) [Example 355] reads 982 nM; that for `NC(=O)COC1CCC(CO)N(CCCCN2CCN(C(=O)/C=C/c3ccc(Cl)c(Cl)c3)CCC2=O)C1` (racemic) [Example 485], 75 nM; that for `CC1CN(CCCN2CCN(C(=O)/C=C/c3ccc(Cl)c(Cl)c3)CCC2=O)CCC1O` (racemic) [Example 243], 133 nM. Next, `O=C(/C=C/c1ccc(F)c(F)c1)N1CCC(=O)N(CC(O)CN2CCCCC2)CC1` (racemic) [Example 177, (rac)-1-[(E)-3-(3,4-Difluoro-phenyl)-acryloyl]-4-(2-hydroxy-3-piperidin-1-yl-propyl)-[1,4]diazepan-5-one]: 954 nM. In the case of `COCC1CCN(CCCCN2CCN(C(=O)/C=C/c3ccc(Cl)c(Cl)c3)CCC2=O)CC1` [Example 444, 1-[(E)-3-(3,4-Dichloro-phenyl)-acryloyl]-4-[4-(4-methoxymethyl-3-piperidin-1-yl)-butyl]-[1,4]diazepan-5-one], the concentration for half-maximal inhibition (IC50) came to 32 nM. For `C[C@@H]1C[C@H](O)CN(C[C@H](O)CCN2CCN(C(=O)/C=C/c3ccc(Cl)c(Cl)c3)CCC2=O)C1` [Example 503], the IC50 was found to be 51 nM. In the case of `CC1C(O)CCCN1CCCN1CCN(C(=O)C=Cc2ccc(F)c(Cl)c2)CCC1=O` (mixture of isomers) [Example 209, (rac,cis)-1-[(E)-3-(3-Chloro-4-fluoro-phenyl)-acryloyl]-4-[3-(3-hydroxy-2-methyl-piperidin-1-yl)-propyl]-[1,4]diazepan-5-one], the IC50 was 1390 nM. Take `O=C(/C=C/c1ccc(Cl)c(Cl)c1)N1CCC(=O)N(CCCN2CCC(O)(c3ccncc3)CC2)CC1` [Example 53, 1-[(E)-3-(3,4-Dichloro-phenyl)-acryloyl]-4-[3-(4-hydroxy-3,4,5,6-tetrahydro-2H-[4,4′]bipyridinyl-1-yl)-propyl]-[1,4]diazepan-5-one]: the IC50 came out at 441 nM.

For `O=C(/C=C/c1ccc(Cl)c(Cl)c1)N1CCC(=O)N(CCCN2CC(O)CCC2CO)CC1` (racemic) [Example 273], the IC50 was 313 nM. Turning to `O=C(/C=C/c1ccc(F)c(Cl)c1)N1CCC(=O)N(CCCCN2CC[C@@H](O)[C@H](F)C2)CC1` (racemic) [Example 394], the IC50 was 551 nM. Next, `CC1CCCCC1NCCCN1CCN(C(=O)C=Cc2ccc(Cl)c(Cl)c2)CCC1=O` (mixture of isomers) [Example 64, cis/trans-1-[(E)-3-(3,4-Dichloro-phenyl)-acryloyl]-4-[3-(2-methyl-cyclohexylamino)-propyl]-[1,4]diazepan-5-one]: 391 nM.

On to `O=C(/C=C/c1ccc(F)c(Cl)c1)N1CCC(=O)N(CCCCN2CCCCC2)CC1` [Example 382], for which the 50% inhibitory concentration (IC50) is 246 nM. Next, `COC(=O)N(C)C1CCN(CCCCN2CCN(C(=O)/C=C/c3ccc(Cl)c(Cl)c3)CCC2=O)CC1` [Example 442]: 85 nM; `O=C(/C=C/c1ccc(Cl)c(Cl)c1)N1CCC(=O)N(CCNC2CCOCC2)CC1` [Example 103, 1-[(E)-3-(3,4-Dichloro-phenyl)-acryloyl]-4-[3-(tetrahydro-pyran-4-ylamino)-ethyl]-[1,4]diazepan-5-one]: 388 nM. Next, `CC1(C)CCN(CCCN2CCN(C(=O)/C=C/c3ccc(F)c(Cl)c3)CCC2=O)CC1O` (racemic) [Example 223]: 13 nM. `COC(=O)NC1CCN(CCCCN2CCN(C(=O)/C=C/c3ccc(Cl)c(Cl)c3)CCC2=O)CC1` [Example 441]: the IC50 was determined as 22 nM. Next, `CC1CCC(O)CN1CCCCN1CCN(C(=O)/C=C/c2ccc(Cl)c(F)c2)CCC1=O` (racemic) [Example 413]: 77 nM. The result for `O=C(/C=C/c1ccc(Cl)c(Cl)c1)N1CCC(=O)N(CCCN2CC[C@@H](O)[C@@H](F)C2)CC1` (racemic) [Example 233, (rac, cis)-1-[(E)-3-(3,4-Dichloro-phenyl)-acryloyl]-4-[3-(3-fluoro-4-hydroxy-piperidin-1-yl)-propyl]-[1,4]diazepan-5-one] reads 359 nM; that for `O=C(/C=C/c1ccc(F)c(Cl)c1)N1CCC(=O)N(CCCN2CCCCC2CO)CC1` (racemic) [Example 210], 1140 nM. Regarding `O=C(O)C(CN1CCCCC1)CN1CCN(C(=O)/C=C/c2ccc(Cl)c(Cl)c2)CCC1=O` (racemic) [Example 183, Lithium; (rac)-3-{4-[(E)-3-(3,4-dichloro-phenyl)-acryloyl]-7-oxo-[1,4]diazepan-1-yl}-2-piperidin-1-ylmethyl-propionate], the concentration for half-maximal inhibition (IC50) was found to be 1230 nM. Next, `CC1CCCN(CC(O)CN2CCN(C(=O)/C=C/c3ccc(Cl)c(Cl)c3)CCC2=O)C1` (racemic) [Example 288]: 206 nM; `O=C(/C=C/c1ccc(Cl)c(Cl)c1)N1CCC(=O)N(CCCCN2CCOCC2)CC1` [Example 155, 1-[(E)-3-(3,4-Dichloro-phenyl)-acryloyl]-4-(4-morpholin-4-yl-butyl)-[1,4]diazepan-5-one]: 370 nM; `O=C(/C=C/c1ccc(Cl)c(F)c1)N1CCC(=O)N(CCCN2CCC3(CC3)C(O)C2)CC1` (stereo not drawn) [Example 494, 1-[(E)-3-(4-Chloro-3-fluoro-phenyl)-acryloyl]-4-[3-((−)-4-hydroxy-6-aza-spiro[2.5]oct-6-yl)-propyl]-[1,4]diazepan-5-one]: 6 nM. As for `COC1COCCC1NCCCN1CCN(C(=O)C=Cc2ccc(Cl)c(Cl)c2)CCC1=O` (mixture of isomers) [Example 275, (rac,cis)-1-[(E)-3-(3,4-Dichloro-phenyl)-acryloyl]-4-[3-(3-methoxy-tetrahydro-pyran-4-ylamino)-propyl]-[1,4]diazepan-5-one], the IC50 was 1090 nM. Next, `O=C(/C=C/c1ccc(Cl)c(Cl)c1)N1CCC(=O)N(CCCN2CCOCC2)CC1` [Example 6, 1-[(E)-3-(3,4-Dichloro-phenyl)-acryloyl]-4-(3-morpholin-4-yl-propyl)-[1,4]diazepan-5-one]: 1310 nM; `CC1(CO)CCCN(CCCCN2CCN(C(=O)/C=C/c3ccc(Cl)c(Cl)c3)CCC2=O)C1` (racemic) [Example 445]: 354 nM. The result for `CC1CCN(CC(O)CCN2CCN(C(=O)/C=C/c3ccc(Cl)c(Cl)c3)CCC2=O)CC1` (racemic) [Example 377] reads 697 nM. On to `O=C(/C=C/c1ccc(Cl)c(Cl)c1)N1CCC(=O)N(CCCN2CC[C@@H](F)[C@H](O)C2)CC1` (racemic) [Example 230, (rac,trans)-1-[(E)-3-(3,4-Dichloro-phenyl)-acryloyl]-4-[3-(4-fluoro-3-hydroxy-piperidin-1-yl)-propyl]-[1,4]diazepan-5-one], for which the IC50 was 215 nM. The result for `O=C1CC2(CCN(CCCN3CCN(C(=O)/C=C/c4ccc(Cl)c(Cl)c4)CCC3=O)CC2)C(=O)N1` [Example 87, 8-(3-{4-[(E)-3-(3,4-Dichloro-phenyl)-acryloyl]-7-oxo-[1,4]diazepan-1-yl}-propyl)-2,8-diaza-spiro[4.5]decane-1,3-dione] reads 315 nM; that for `COCCN1CCN(CCCCN2CCN(C(=O)/C=C/c3ccc(Cl)c(Cl)c3)CCC2=O)CC1` [Example 439], 263 nM; that for `CC1CCN(CCCN2CCN(C(=O)/C=C/c3ccc(Cl)c(Cl)c3)CCC2=O)CC1O` (racemic) [Example 238], 54 nM.
